Data set [1] is described as follows: dechlorination in platinum-catalyzed hydrogenation, semi-continuous reactor. The note with it: for Dechlor: ppm based on weight of product amine. The method, then: The autoclave was sealed, the air was displaced with nitrogen and the autoclave was pressure tested. The nitrogen was replaced with hydrogen and the contents of the autoclave were heated to 80° C. The agitation was started and the contents of the autoclave were heated to 100° C. The pressure control regulator on the hydrogen feed was set at 540 psig and this pressure maintained in the autoclave throughout the reduction. The addition of 510 g of 3,4-dichloro-1-nitrobenzene crude (containing 11% 2,3- and 1% 2,5- isomers) was started. During the simultaneous feeding of the hydrogen and the nitroaromatic, the temperature was allowed to rise to 135° C. where it was controlled by the automated cooling water system. The addition of the nitroaromatic was completed in about 120 minutes. […] Heating at reaction conditions was continued for an additional 15 minutes. The autoclave was cooled, the hydrogen was displaced with nitrogen and the organic phase was separated.

The conditions of data set [2]: per literature data; cited from earlier work.
A short description of data set [3]: storage stabilization of molten 3,4-dichloroaniline at 110° C. Particulars: 0.43 wt. % additive. Here is the method: Round bottom drying ampuls of 20 ml capacity were dried by heating and were then cooled under nitrogen. Ten ml of test samples consisting of molten 3,4-dichloroaniline containing candidate stabilizers were pipetted into the ampuls which were sealed under nitrogen and stored in a 110° C. oven. Periodically an ampul of each sample was removed from the oven and evaluated.

A short description of data set [4]: dehalogenation inhibitor evaluation in laboratory batch hydrogenation. Here is the method:
The autoclave was sealed, the air was displaced with nitrogen and the autoclave was pressure tested. The nitrogen was replaced with hydrogen and the contents of the autoclave were heated to 75° C. The agitation was started and the pressure control regulator on the hydrogen feed was set to a maximum of 500 psig. […] The reduction was terminated. The autoclave was cooled, the hydrogen was displaced with nitrogen and the organic phase was separated.
Hydrogenation temperature was controlled at 110° C. instead of 96° C.

[5] abbreviates: 2.0 mole % inhibitor based on nitroaromatic.
Where [6] appears, read: 2.1 mole % inhibitor based on nitroaromatic.

Data on seven compounds can be found in US4990663A, “Process for preparing halogenated aromatic amines” (E. I. Du POnt de Nemours and Company, priority 1989, dated 1991).

Structures are written as SMILES.

Consider `CC(O)CN` (stereo not shown) [1-amino-2-propanol], for which, in data set [1] (1.5 mole % inhibitor based on nitroaromatic), the Dechlor is 470 ppm.

Regarding `COCCN` [2-methoxyethylamine], in data set [2], the pKb was 4.6. Further, the Color result in data set [3] (7 days) was “Lt yellow”; in data set [3] (60 days), “Yellow”. The entries for the “High Boilers” value in data set [3] (7 days) and in data set [3] (60 days) were 0.05 Weight % and 0.07 Weight %, respectively. In data set [1] (setting [5]), this compound gave a Dechlor of 282 ppm. Further, the “dechlorinated derivatives in product amine” value in data set [4] (Example 10, 1.0 weight % inhibitor, otherwise as Example 8) is 0.05%. Besides, the dehalogenation inhibition entry in data set [4] (batch, similar conditions (96° C.)) was “good dehalogenation inhibitor being approximately equivalent to morpholine”.

As to `NCCCO` [3-amino-1-propanol], in data set [2], the pKb is reported as 4.1. The same compound yielded a Dechlor in data set [1] (setting [5]) of 423 ppm.

Regarding `COCCCN` [3-methoxy-1-propylamine], in data set [1] (2.5 mole % inhibitor based on nitroaromatic), the Dechlor is 438 ppm.

In the case of `OCCNCCO` [diethanolamine], the pKb in data set [2] is on record as 5.0. For the same compound, the Dechlor in data set [1] (setting [6]) was 344 ppm.

For the compound `NCCO` [ethanolamine], in data set [1] (Example 1, 0.4 weight % and 1.2 mole % inhibitor based on nitroaromatic, 135° C., 540 psig), the “dechlorination (total of aniline and monochloroanilines in the product calculated as p-chloroaniline)” value is listed as “less than 235 ppm”. In addition, in data set [4] (Example 8, 0.5 weight % inhibitor, 96° C., 7.9 mg platinum, terminated at 188 minutes), the “dechlorination (total of aniline and monochloroanilines calculated as p-chloroaniline)” value is 0.03%. Moreover, the “dechlorinated derivatives in product amine” value in data set [4] (Example 9, 0.375 weight % inhibitor, 110° C., 15.8 mg platinum) is given as 0.003%. The dehalogenation result in data set [4] (batch, 96° C., concentrations near optimum for semicontinuous unit) is “very low”.

In data set [1] (setting [6]), `C1COCCN1` [morpholine, reference compound] displayed a Dechlor of 548 ppm.
